According to patent US8513421B2, “Substituted hydroxamic acids and uses thereof” (Millennium Pharmaceuticals, Inc., priority 2010, dated 2013):

The compounds below were run against T1, purified human HDAC6 (Homo sapiens, UniProt Q9UBN7) (assay: HDAC6 Enzyme Assay). Conditions: purified human HDAC6, substrate Ac-Arg-Gly-Lys(Ac)-AMC, 1 hour at 30° C.
T1 construct: purchased BPS Bioscience 5006
T1 sequence (Q9UBN7 1-1215): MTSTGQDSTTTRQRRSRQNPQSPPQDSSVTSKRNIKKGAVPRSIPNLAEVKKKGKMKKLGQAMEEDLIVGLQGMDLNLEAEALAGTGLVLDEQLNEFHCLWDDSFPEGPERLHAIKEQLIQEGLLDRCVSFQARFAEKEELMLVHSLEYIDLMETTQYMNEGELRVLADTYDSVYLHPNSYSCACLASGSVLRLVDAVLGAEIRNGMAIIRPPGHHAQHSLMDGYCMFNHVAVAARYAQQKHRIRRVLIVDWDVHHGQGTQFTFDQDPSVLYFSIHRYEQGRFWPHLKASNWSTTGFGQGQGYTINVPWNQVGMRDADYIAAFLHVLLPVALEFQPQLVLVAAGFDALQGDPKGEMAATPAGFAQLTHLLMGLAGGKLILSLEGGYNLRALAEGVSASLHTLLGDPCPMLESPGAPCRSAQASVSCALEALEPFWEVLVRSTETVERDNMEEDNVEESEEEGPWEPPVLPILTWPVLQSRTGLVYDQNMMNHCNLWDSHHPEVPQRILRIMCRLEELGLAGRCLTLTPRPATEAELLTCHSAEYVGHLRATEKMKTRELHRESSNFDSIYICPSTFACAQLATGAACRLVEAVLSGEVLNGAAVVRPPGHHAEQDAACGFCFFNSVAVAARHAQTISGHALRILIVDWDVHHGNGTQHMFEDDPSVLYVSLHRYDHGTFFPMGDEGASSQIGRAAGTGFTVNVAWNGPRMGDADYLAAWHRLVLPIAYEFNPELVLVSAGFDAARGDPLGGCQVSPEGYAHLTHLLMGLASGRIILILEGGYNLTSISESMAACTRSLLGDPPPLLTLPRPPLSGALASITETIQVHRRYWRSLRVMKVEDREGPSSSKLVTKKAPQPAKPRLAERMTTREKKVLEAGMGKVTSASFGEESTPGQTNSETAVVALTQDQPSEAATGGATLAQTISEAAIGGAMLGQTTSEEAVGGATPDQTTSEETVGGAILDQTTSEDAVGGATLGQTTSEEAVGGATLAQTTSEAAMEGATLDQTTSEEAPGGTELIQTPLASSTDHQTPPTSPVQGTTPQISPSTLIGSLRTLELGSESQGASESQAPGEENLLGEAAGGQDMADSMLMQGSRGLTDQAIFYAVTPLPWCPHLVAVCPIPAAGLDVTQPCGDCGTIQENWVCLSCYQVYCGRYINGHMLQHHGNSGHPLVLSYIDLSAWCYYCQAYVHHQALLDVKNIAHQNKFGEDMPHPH
Type: biochemical
Method: To measure the inhibition of HDAC6 activity, purified human HDAC6 (BPS Bioscience; Cat. No. 5006) is incubated with substrate Ac-Arg-Gly-Lys(Ac)-AMC peptide (Bachem Biosciences; Cat. No. I-1925) for 1 hour at 30° C. in the presence of test compounds or vehicle DMSO control. The reaction is stopped with the HDAC inhibitor trichostatin A (Sigma; Cat. No. T8552) and the amount of Arg-Gly-Lys-AMC generated is quantitated by digestion with trypsin (Sigma; Cat. No. T1426) and subsequent measurement of the amount of AMC released using a fluorescent plate reader (Pherastar; BMG Technologies) set at Ex 340 nm and Em 460 nm. Concentration response curves are generated by calculating the fluorescence increase in test compound-treated samples relative to DMSO-treated controls, and enzyme inhibition (IC50) values are determined from those curves.

**Q.** With CN(C)Cc1cc(C(=O)Nc2ccc3ncc(C(=O)NO)cc3c2)cc(C(F)(F)F)c1 [Compound I-1, 6-{[3-[(dimethylamino)methyl]-5-(trifluoromethyl)benzoyl]amino}-N-hydroxyquinoline-3-carboxamide] as the compound, how does the IC50 read?
**A.** 100 to 500 nM

**Q.** How did the IC50 turn out when O=C(NO)c1cnc2ccc(Oc3cccc(Cl)c3)cc2c1 [Compound I-2, 6-(3-chlorophenoxy)-N-hydroxyquinoline-3-carboxamide] was run?
**A.** 100 to 500 nM

**Q.** Which IC50 does the source give for COc1ccc2cc(C(=O)NO)cnc2c1 [Compound I-3, N-hydroxy-7-methoxyquinoline-3-carboxamide] here?
**A.** > 500 nM

**Q.** For O=C1CCc2c(Oc3ccc4cc(C(=O)NO)cnc4c3)ccnc2N1 [Compound I-4, N-hydroxy-7-[(7-oxo-5,6,7,8-tetrahydro-1,8-naphthyridin-4-yl)oxy]quinoline-3-carboxamide], which IC50 is on record?
**A.** 100 to 500 nM

**Q.** COc1ccc(C(=O)Nc2ccc3cc(C(=O)NO)cnc3c2)cc1 [Compound I-5, N-hydroxy-7-[(4-methoxybenzoyl)amino]quinoline-3-carboxamide] was tested. Which IC50 did it give?
**A.** 100 to 500 nM

**Q.** With O=C(NO)c1cnc2ccc(NC(=O)C3CC3)cc2c1 [Compound I-6, 6-[(cyclopropylcarbonyl)amino]-N-hydroxyquinoline-3-carboxamide] as the compound, how does the IC50 read?
**A.** < 100 nM

**Q.** For O=C(NO)c1cnc2ccc(Nc3ccccc3)cc2c1 [Compound I-7, 6-anilino-N-hydroxyquinoline-3-carboxamide], which IC50 is on record?
**A.** 100 to 500 nM

**Q.** With Cn1cc(-c2cc(C(=O)Nc3ccc4ncc(C(=O)NO)cc4c3)cc(C(F)(F)F)c2)cn1 [Compound I-8, N-hydroxy-6-{[3-(1-methyl-1H-pyrazol-4-yl)-5-(trifluoromethyl)benzoyl]amino}quinoline-3-carboxamide] as the compound, how does the IC50 read?
**A.** < 100 nM

**Q.** With O=C(NO)c1cnc2ccc(Nc3ccncc3)cc2c1 [Compound I-9, N-hydroxy-6-(pyridin-4-ylamino)quinoline-3-carboxamide] as the compound, how does the IC50 read?
**A.** 100 to 500 nM

**Q.** Which IC50 does the source give for CC(C)(C)OC(=O)Nc1ccc2cc(C(=O)NO)cnc2c1 [Compound I-10, tert-butyl {3-[(hydroxyamino)carbonyl]quinolin-7-yl}carbamate] here?
**A.** < 100 nM

**Q.** Which IC50 does the source give for O=C(NO)c1cnc2ccc(-c3ccncc3)cc2c1 [Compound I-11, N-hydroxy-6-pyridin-4-ylquinoline-3-carboxamide] here?
**A.** < 100 nM

**Q.** How did the IC50 turn out when O=C(NO)c1cnc2ccc(Oc3ccccc3)cc2c1 [Compound I-12, N-hydroxy-6-phenoxyquinoline-3-carboxamide] was run?
**A.** 100 to 500 nM

**Q.** Which IC50 does the source give for O=C(NO)c1cnc2ccc(NS(=O)(=O)c3ccccc3)cc2c1 [Compound I-13, N-hydroxy-6-[(phenylsulfonyl)amino]quinoline-3-carboxamide] here?
**A.** < 100 nM

**Q.** O=C(Nc1ccccc1)Nc1ccc2ncc(C(=O)NO)cc2c1 [Compound I-14, 6-[(anilinocarbonyl)amino]-N-hydroxyquinoline-3-carboxamide] was tested. Which IC50 did it give?
**A.** < 100 nM

**Q.** For O=C(NO)c1cnc2cc(Oc3cccc(Cl)c3)ccc2c1 [Compound I-15, 7-(3-chlorophenoxy)-N-hydroxyquinoline-3-carboxamide], which IC50 is on record?
**A.** 100 to 500 nM

**Q.** With O=C(NO)c1cnc2cc(Oc3ccc(Cl)cc3)ccc2c1 [Compound I-16, 7-(4-chlorophenoxy)-N-hydroxyquinoline-3-carboxamide] as the compound, how does the IC50 read?
**A.** 100 to 500 nM

**Q.** O=C(NO)c1cnc2ccc(NCc3ccccc3)cc2c1 [Compound I-17, 6-(benzylamino)-N-hydroxyquinoline-3-carboxamide] was tested. Which IC50 did it give?
**A.** < 100 nM

**Q.** With O=C(NO)c1cnc2ccc(CCc3ccccc3)cc2c1 [Compound I-18, N-hydroxy-6-(2-phenylethyl)quinoline-3-carboxamide] as the compound, how does the IC50 read?
**A.** < 100 nM

**Q.** COc1ccc2ncc(C(=O)NO)cc2c1 [Compound I-19, N-hydroxy-6-methoxyquinoline-3-carboxamide] was tested. Which IC50 did it give?
**A.** > 500 nM

**Q.** How did the IC50 turn out when O=C(NO)c1cnc2ccc(NC(=O)c3ccccc3)cc2c1 [Compound I-20, 6-(benzoylamino)-N-hydroxyquinoline-3-carboxamide] was run?
**A.** < 100 nM

**Q.** With CC(C)(C)OC(=O)Nc1ccc2ncc(C(=O)NO)cc2c1 [Compound I-21, tert-butyl {3-[(hydroxyamino)carbonyl]quinolin-6-yl}carbamate] as the compound, how does the IC50 read?
**A.** < 100 nM

**Q.** How did the IC50 turn out when COc1ccc(C(=O)Nc2ccc3ncc(C(=O)NO)cc3c2)cc1 [Compound I-22, N-hydroxy-6-[(4-methoxybenzoyl)amino]quinoline-3-carboxamide] was run?
**A.** < 100 nM

**Q.** How did the IC50 turn out when O=C(NO)c1cnc2cc(Oc3ccnc(NC(=O)C4CC4)c3)ccc2c1 [Compound I-23, 7-({2-[(cyclopropylcarbonyl)amino]pyridin-4-yl}oxy)-N-hydroxyquinoline-3-carboxamide] was run?
**A.** 100 to 500 nM

**Q.** With O=C(NO)c1cnc2cc(Nc3ccccc3)ccc2c1 [Compound I-24, 7-anilino-N-hydroxyquinoline-3-carboxamide] as the compound, how does the IC50 read?
**A.** < 100 nM

**Q.** O=C(NO)c1cnc2cc(-c3ccc(Cl)cc3)ccc2c1 [Compound I-25, 7-(4-chlorophenyl)-N-hydroxyquinoline-3-carboxamide] was tested. Which IC50 did it give?
**A.** 100 to 500 nM

**Q.** How did the IC50 turn out when O=C1CCc2c(Oc3ccc4ncc(C(=O)NO)cc4c3)ccnc2N1 [Compound I-26, N-hydroxy-6-[(7-oxo-5,6,7,8-tetrahydro-1,8-naphthyridin-4-yl)oxy]quinoline-3-carboxamide] was run?
**A.** 100 to 500 nM

**Q.** For O=C(NO)c1cnc2ccc(-c3ccc(Cl)cc3)cc2c1 [Compound I-27, 6-(4-chlorophenyl)-N-hydroxyquinoline-3-carboxamide], which IC50 is on record?
**A.** 100 to 500 nM

**Q.** How did the IC50 turn out when O=C(NO)c1cnc2cc(Nc3ccncc3)ccc2c1 [Compound I-28, N-hydroxy-7-(pyridin-4-ylamino)quinoline-3-carboxamide] was run?
**A.** < 100 nM

**Q.** With O=C(NO)c1cnc2ccc(Oc3ccc(Cl)cc3)cc2c1 [Compound I-29, 6-(4-chlorophenoxy)-N-hydroxyquinoline-3-carboxamide] as the compound, how does the IC50 read?
**A.** 100 to 500 nM

**Q.** O=C(NO)c1cnc2ccc(Nc3ccc(Cl)cc3)cc2c1 [Compound I-30, 6-[(4-chlorophenyl)amino]-N-hydroxyquinoline-3-carboxamide] was tested. Which IC50 did it give?
**A.** < 100 nM

**Q.** O=C(NO)c1cnc2ccc(Oc3ccnc(NC(=O)C4CC4)c3)cc2c1 [Compound I-31, 6-({2-[(cyclopropylcarbonyl)amino]pyridin-4-yl}oxy)-N-hydroxyquinoline-3-carboxamide] was tested. Which IC50 did it give?
**A.** < 100 nM

**Q.** For O=C(NO)c1cnc2ccc(Oc3ccncc3)cc2c1 [Compound I-32, N-hydroxy-6-(pyridin-4-yloxy)quinoline-3-carboxamide], which IC50 is on record?
**A.** 100 to 500 nM

**Q.** How did the IC50 turn out when O=C(NO)c1cnc2cc(-c3ccncc3)ccc2c1 [Compound I-33, N-hydroxy-7-pyridin-4-ylquinoline-3-carboxamide] was run?
**A.** 100 to 500 nM
